In patent publication EP2518139A1, “Use of indirubin derivatives for producing pluripotent stem cells” (Universitätsklinikum Jena, priority 2011, dated 2012):

Key:
healthy cell lines = assay: MTT assay, healthy cell lines; assay type: cell-based; settings: non-cancer cell lines
[1] = system: mono-, di- and poly-ubiquitins; assay: Immunoblot of ubiquitins in HeLa cells; assay type: cell-based, human; settings: BMP-stimulated HeLa, 24h; MG132 5µM, E738 (1µM)
Method: Western blot:: Cell extracts were homogenized in Urea-Lysis buffer (1mM EDTA,0.5% Triton X-100), 5mM NaF, 6M Urea, 1mM Na3VO4, 10µg/mL Pepstatin, 100µM PMSF and 3µg/mL Aprotinin in PBS). Enhanced chemiluminescence (ECL) Western blot analysis was performed. 20-40µg of total protein was resolved on 10% SDS-PAGE gels and immunoblotted with specific antibodies. Primary antibodies were incubated at a 1:1,000 dilution in TBS (pH 7.5) with 0.1% Tween-20 and 5% BSA/nonfat milk with gentle agitation overnight at 4°C. The proper secondary antibodies were incubated in TBS (pH 7.5) with 5% BSA/nonfat milk and 0.1 % Tween-20 at a 1:5,000 dilution for 1 h at room temperature.
Ubiquitin-proteasome degradation system is the major route to protein degradation. To identify if indirubin-induced degradation is conducted by proteasome, we utilized MG132, a general proteasome inhibitor, to characterize the role of proteasome in degradation. We found 5µM MG132 was sufficient to rescue the E738 mediated Smad1/5/8 […] 24h after treatment (Fig. 5E and 5F). […] Thus we interpreted that E738 might be able to promote degradation of polymerased ubiquintins through activating the formation of complexes with certain substrates, speculatively like Smad1/2/3/5/8, leading to accelerate the recycling of mono-ubiquitin, while MG132 blocked the degradation of these complexes and arrest such recycling. […]

Parp = Parp cleavage by immunoblot; assay type: cell-based; settings: E738 (1µM), FCS 10% or BMP2 (100ng/mL)
Method: The Figures show: • Figure 1: IRDs impacted on the activation of BMP-associated Smad1/5/8 in HeLa and HFF. Phosphorylation of Smad1 (Ser463/465)/5 (Ser463/465)/8 (Ser426/428) and pan Smad1/5/8 were detected by immunoblot after 24h treatment with IRDs as indicated at 1µM or 5µM a) in HeLa with the stimuli of BMP2 (100ng/mL), b) FCS 10%, c) in HFF with the stimuli of BMP2 (100ng/mL) or d) FCS 10%. […] Data were normalized to the value of non-treated cells, show the mean ± SD of quadruplicates and are representative of three independent experiments. […] Total lysates were analyzed by immunoblot using proper antibodies. b) Cell extracts of BMP-treated HeLa cells with or without compounds were subject to immunoblot using p- and pan-Smad1/5/8 antibodies. c) HeLa cells were incubated with or without E738 (1µM) after a 1 h pulse of BMP2, d) or with DM (1µM) and E738 (1µM) for the indicated periods. • Figure 4: R-Smad regulated by E738 in time- and dose-response studies. HeLa cells were treated with BMP2 (100ng/mL) in the presence or absence of E738 (1µM) in a time course study as indicated and analyzed, a) by immunoblot using antibodies against p-Smad1/5/8 at C tail, p-Smad1/5/8 at S206), Smad1/5/8, p-Erk1/2, p-JNK and p-P38 or b) qRT-PCR using primers of ID1 and ID2. […] The expression of Smad1, Smad2, Smad4, Smurf1 and Smurf2 were analyzed by qRT- PCR. […]

## COc1ccc2c(c1)C(=C1Nc3ccccc3C1=NOCC(O)CO)C(=O)N2 (stereo not drawn) [E738]
Healthy cell lines
  toxicities towards healthy cell lines, lower than towards tumor cells: 20 fold
[1]
  mono-, di- and poly-ubiquitins: more mono-ubiquitin, but less di- and poly-ubiquitins
Parp
  Parp cleavage: induced Parp cleavage
